Data as given in patent publication US9718790B2, “Triazine derivative and pharmaceutical composition having an analgesic activity comprising the same” (SHIONOGI & CO., LTD., priority 2010, dated 2017).

target: human P2X3 receptor (Homo sapiens (Human), UniProt P56373); assay: Evaluation of human P2X3 receptor inhibitory activity (Fluo-3 calcium fluorescence, FDSS 3000, ATP stimulation); format: cell-based; settings: C6BU-1 cells stably expressing human P2X3 receptor;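 further: stimulus was 50 nM ATP with fluorescence followed for 3 min, and the response per well was peak post-ATP fluorescence divided by the reading at measurement start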
Sequence (P56373 whole entry): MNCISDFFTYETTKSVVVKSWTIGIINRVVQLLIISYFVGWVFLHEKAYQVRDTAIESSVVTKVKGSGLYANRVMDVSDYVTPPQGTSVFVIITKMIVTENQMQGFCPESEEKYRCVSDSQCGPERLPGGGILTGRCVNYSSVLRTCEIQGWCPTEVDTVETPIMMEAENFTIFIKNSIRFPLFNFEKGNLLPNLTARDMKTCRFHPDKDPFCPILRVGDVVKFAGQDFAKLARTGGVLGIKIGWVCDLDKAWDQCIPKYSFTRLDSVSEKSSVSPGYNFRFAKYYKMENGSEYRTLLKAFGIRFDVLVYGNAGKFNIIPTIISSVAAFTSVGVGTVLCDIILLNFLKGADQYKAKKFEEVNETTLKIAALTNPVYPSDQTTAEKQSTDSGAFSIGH

Row | Compound | IC50
1 | Cc1ccc(Cn2c(=O)n([C@H](C)[C@H](C)C(=O)O)c(=O)[nH]/c2=N\c2ccc(CC(C)C)c(Cl)c2)cc1 [Compound I-1444] | 4 nM
2 | COC(=O)C(C)(C)Cn1c(=O)[nH]/c(=N\c2ccc3c(c2)cc(C)n3C)n(Cc2ccc(Cl)cc2)c1=O [Compound I-0597] | 507 nM
3 | COC(=O)[C@@H](C)Cn1c(=O)[nH]/c(=N\c2ccc(CC#N)c(Cl)c2)n(Cc2ccc(Cl)cc2)c1=O [Compound I-0766] | 438 nM
4 | COC(=O)[C@H](C)[C@H](C)n1c(=O)[nH]/c(=N\c2ccc(Oc3ccc(C)nc3)cc2)n(Cc2ccc(Cl)cc2)c1=O [Compound I-1375] | 5 nM
5 | CCn1c(=O)[nH]/c(=N\c2ccc(Oc3ccc(C(=O)OC)o3)cc2)n(Cc2ccc(Cl)cc2)c1=O [Compound I-2150] | 44 nM
6 | CNC(=O)CCn1c(=O)[nH]/c(=N\c2ccc(OC(C)C)c(Cl)c2)n(CC2CCC(C)CC2)c1=O (centres unmarked) [Compound I-2019] | 5 nM
7 | CNC(=O)CCCn1c(=O)[nH]/c(=N\c2ccc(OC(C)C)c(C)c2)n(Cc2ccc(Cl)cc2)c1=O [Compound I-0786] | 15 nM
8 | Cc1nc2ccc(/N=c3\[nH]c(=O)n(CCC(=O)O)c(=O)n3CC3CCC(C)CC3)cc2s1 (centres unmarked) [Compound I-1994] | 10 nM
9 | COC(=O)[C@@H](C)Cn1c(=O)[nH]/c(=N\c2cccc(C(F)(F)F)c2)n(Cc2ccc(Cl)cc2)c1=O [Compound I-0622] | 30 nM

same assay, conditions: C6BU-1 cells stably expressing human P2X3 receptor, Fluo-3 fluorescence, FDSS 3000

Row | Compound | IC50
10 | COC(=O)[C@@H](C)Cn1c(=O)[nH]/c(=N\c2ccc(O[C@H](C)C(F)(F)F)cc2)n(Cc2ccc(Cl)cc2)c1=O [Compound I-0942] | 22 nM
11 | CC[C@@H](C)Oc1ccc(/N=c2\[nH]c(=O)n([C@H](C)CC(=O)O)c(=O)n2Cc2ccc(C)cc2)cc1C [Compound I-0937] | 22 nM
12 | C[C@@H](C(=O)O)[C@H](C)n1c(=O)[nH]/c(=N\c2ccc3c(c2)CCC(=O)N3)n(Cc2ccc(Cl)cc2)c1=O [Compound I-1819] | 873 nM
13 | CCCCCOc1ccc(/N=c2\[nH]c(=O)n(CCC(=O)O)c(=O)n2Cc2ccc(C)cc2)cc1 [Compound I-1072] | 252 nM
14 | CC[C@@H](C)Oc1ccc(/N=c2\[nH]c(=O)n([C@H](C)CC(=O)OC)c(=O)n2Cc2ccc(C)cc2)cc1 [Compound I-0939] | 34 nM

same assay, conditions: human P2X3 receptor, Test Example 1

Row | Compound | IC50
15 | CCc1cc2cc(/N=c3\[nH]c(=O)n(C[C@H](O)CO)c(=O)n3Cc3ccc(Cl)cc3)ccc2o1 [Compound I-2315] | 17 nM
16 | O=c1[nH]/c(=N\c2ccc(Oc3ncns3)cc2)n(Cc2ccc(Cl)cc2)c(=O)n1C[C@H](O)CO [Compound I-2519] | 4 nM
17 | O=c1[nH]/c(=N\c2ccc(Oc3ccsn3)cc2)n(Cc2ccc(Cl)cc2)c(=O)n1CCO [Compound I-2563] | 15 nM
18 | CCOc1ccc(/N=c2\[nH]c(=O)n([C@H](C)CC(=O)O)c(=O)n2Cc2ccc(C)cc2)cc1Cl [Compound I-0879] | 58 nM
19 | CCn1c(=O)[nH]/c(=N\c2ccc(Oc3ccc(C(N)=O)cn3)cc2)n(Cc2ccc(C)cc2)c1=O [Compound I-2398] | 3 nM
20 | O=c1[nH]/c(=N\c2ccc(Oc3ccon3)cc2)n(Cc2ccc(Cl)cc2)c(=O)n1CC(O)CO (centres unmarked) [Compound I-2370] | 11 nM
21 | O=C(O)Cn1c(=O)[nH]/c(=N\c2ccc(Oc3ccnnc3)cc2)n(Cc2ccc(Cl)cc2)c1=O [Compound I-2665] | 85 nM
22 | CCCOc1ccc(/N=c2\[nH]c(=O)n(CC(F)(F)C(=O)O)c(=O)n2Cc2ccc(C)cc2)cc1 [Compound I-0871] | 40 nM
23 | CCc1cc2cc(/N=c3\[nH]c(=O)n(CCCO)c(=O)n3Cc3ccc(Cl)cc3)ccc2o1 [Compound I-2336] | 10 nM
24 | CCn1c(=O)[nH]/c(=N\c2ccc3nc(/C=N\OC)sc3c2)n(Cc2ccc(Cl)cc2)c1=O [Compound I-2338] | 260 nM
25 | Cn1c(=O)[nH]/c(=N\c2ccc(Oc3nccc(C(N)=O)n3)cc2)n(Cc2ccc(Cl)cc2)c1=O [Compound I-2380] | 29 nM
26 | Cc1ccc(Cn2c(=O)n(CCC(=O)O)c(=O)[nH]/c2=N\c2ccc(Oc3cccc(C(N)=O)n3)cc2)cc1 [Compound I-2683] | 12 nM
